Experiments:
Assay type in all cases: biochemical
UGT1A1 = biological target: T1, UGT1A1 (Homo sapiens, UniProt P22309); assay: 4MU glucuronidation, HPLC of 4MUG
T1 construct: Supersome recombinant human enzyme (Corning), microsomal preparation
T1 sequence (P22309 26-533): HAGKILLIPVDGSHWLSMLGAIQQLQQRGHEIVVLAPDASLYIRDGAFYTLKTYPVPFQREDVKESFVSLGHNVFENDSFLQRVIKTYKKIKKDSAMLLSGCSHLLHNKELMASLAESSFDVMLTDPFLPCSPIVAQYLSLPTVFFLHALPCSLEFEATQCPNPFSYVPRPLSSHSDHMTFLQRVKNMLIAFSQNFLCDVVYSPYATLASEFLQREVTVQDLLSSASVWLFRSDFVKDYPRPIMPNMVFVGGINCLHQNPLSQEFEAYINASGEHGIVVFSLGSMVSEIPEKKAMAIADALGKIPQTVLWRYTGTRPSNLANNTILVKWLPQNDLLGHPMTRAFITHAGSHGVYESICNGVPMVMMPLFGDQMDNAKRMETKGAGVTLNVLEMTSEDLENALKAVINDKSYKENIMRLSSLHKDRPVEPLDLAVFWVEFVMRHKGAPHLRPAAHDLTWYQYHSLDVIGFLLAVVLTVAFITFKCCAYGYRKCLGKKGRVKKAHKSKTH
From the text: 4MU glucuronidation, HPLC of 4MUG on UGT1A1

UGT1A9 [1] = biological target: T2, UGT1A9 (Homo sapiens, UniProt O60656); assay: 4MU glucuronidation, HPLC of 4MUG
T2 construct: Supersome recombinant human enzyme (Corning), microsomal preparation
T2 sequence (O60656 26-530): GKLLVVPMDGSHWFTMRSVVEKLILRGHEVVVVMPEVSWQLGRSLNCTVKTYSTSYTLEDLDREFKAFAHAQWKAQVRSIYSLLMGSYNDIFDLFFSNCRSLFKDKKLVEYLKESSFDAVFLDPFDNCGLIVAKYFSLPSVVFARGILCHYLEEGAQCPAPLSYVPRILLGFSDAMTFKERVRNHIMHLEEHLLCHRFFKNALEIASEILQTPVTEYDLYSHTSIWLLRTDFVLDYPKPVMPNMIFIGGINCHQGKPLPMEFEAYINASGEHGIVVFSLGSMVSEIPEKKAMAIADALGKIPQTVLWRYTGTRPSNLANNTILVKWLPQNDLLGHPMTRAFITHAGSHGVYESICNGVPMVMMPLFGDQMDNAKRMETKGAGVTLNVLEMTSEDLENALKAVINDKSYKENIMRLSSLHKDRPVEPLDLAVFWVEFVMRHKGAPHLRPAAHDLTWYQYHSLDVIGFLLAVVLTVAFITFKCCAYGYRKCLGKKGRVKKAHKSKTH
From the text: 4MU glucuronidation, HPLC of 4MUG on UGT1A9

UGT2B7 = biological target: T3, UGT2B7 (Homo sapiens, UniProt P16662); assay: 4MU glucuronidation, HPLC of 4MUG
T3 construct: Supersome recombinant human enzyme (Corning), microsomal preparation
T3 sequence (P16662 24-529): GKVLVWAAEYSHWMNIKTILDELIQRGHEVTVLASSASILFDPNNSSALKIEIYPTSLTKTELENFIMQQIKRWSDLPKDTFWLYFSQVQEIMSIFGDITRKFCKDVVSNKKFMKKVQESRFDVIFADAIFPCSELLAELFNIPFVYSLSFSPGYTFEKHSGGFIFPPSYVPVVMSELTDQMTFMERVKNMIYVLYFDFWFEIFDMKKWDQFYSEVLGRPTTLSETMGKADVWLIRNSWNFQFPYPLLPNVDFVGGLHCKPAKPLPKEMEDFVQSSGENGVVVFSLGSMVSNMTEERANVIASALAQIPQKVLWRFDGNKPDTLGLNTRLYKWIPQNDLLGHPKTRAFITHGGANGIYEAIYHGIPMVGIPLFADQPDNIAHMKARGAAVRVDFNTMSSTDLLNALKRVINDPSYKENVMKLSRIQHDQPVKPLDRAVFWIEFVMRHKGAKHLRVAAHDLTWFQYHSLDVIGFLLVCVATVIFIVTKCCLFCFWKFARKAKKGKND
From the text: 4MU glucuronidation, HPLC of 4MUG on UGT2B7

UGT1A6 = biological target: T4, UGT1A6 (Homo sapiens, UniProt P19224); assay: 4MU glucuronidation, HPLC of 4MUG
T4 construct: Supersome recombinant human enzyme (Corning), microsomal preparation
T4 sequence (P19224 27-532): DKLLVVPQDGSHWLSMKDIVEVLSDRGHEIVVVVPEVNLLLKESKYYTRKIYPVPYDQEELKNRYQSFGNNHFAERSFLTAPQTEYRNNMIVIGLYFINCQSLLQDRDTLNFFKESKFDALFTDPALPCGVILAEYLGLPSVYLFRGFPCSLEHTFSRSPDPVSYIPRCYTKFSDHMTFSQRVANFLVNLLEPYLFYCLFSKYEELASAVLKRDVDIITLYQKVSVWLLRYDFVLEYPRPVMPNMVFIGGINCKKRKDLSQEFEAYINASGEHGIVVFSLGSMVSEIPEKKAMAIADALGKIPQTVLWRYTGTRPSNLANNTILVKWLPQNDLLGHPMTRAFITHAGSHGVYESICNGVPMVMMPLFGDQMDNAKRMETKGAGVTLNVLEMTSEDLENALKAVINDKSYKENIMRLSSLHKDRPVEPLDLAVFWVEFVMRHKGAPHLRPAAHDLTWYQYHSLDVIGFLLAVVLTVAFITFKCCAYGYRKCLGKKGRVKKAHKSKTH
From the text: 4MU glucuronidation, HPLC of 4MUG on UGT1A6

UGT1A9 [2] = biological target: T2, UGT1A9; assay: 4MU glucuronidation, HPLC of 4MUG, Dixon plot
From the text: 4MU glucuronidation, HPLC of 4MUG, Dixon plot on UGT1A9

UGT1A3 [3] = biological target: T5, UGT1A3 (Homo sapiens, UniProt P35503); assay: 4MU glucuronidation, HPLC of 4MUG, Dixon plot
T5 construct: Supersome recombinant human enzyme (Corning), microsomal preparation
T5 sequence (P35503 29-534): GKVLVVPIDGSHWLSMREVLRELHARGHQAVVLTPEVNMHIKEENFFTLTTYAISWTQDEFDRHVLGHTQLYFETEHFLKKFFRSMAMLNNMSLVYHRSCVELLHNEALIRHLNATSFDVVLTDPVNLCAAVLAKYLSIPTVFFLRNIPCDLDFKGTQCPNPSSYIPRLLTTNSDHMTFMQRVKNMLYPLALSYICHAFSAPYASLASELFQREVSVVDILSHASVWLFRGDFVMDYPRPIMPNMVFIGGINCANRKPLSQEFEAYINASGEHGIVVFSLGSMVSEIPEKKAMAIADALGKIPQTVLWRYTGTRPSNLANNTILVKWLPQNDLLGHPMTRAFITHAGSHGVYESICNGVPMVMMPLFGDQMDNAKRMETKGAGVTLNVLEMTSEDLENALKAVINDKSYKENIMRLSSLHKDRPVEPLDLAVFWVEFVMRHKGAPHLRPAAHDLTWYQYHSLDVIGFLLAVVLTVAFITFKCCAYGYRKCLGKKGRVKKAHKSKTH
From the text: 4MU glucuronidation, HPLC of 4MUG, Dixon plot on UGT1A3

UGT1A3 [4] = biological target: T5, UGT1A3; assay: 4MU glucuronidation, HPLC of 4MUG
From the text: 4MU glucuronidation, HPLC of 4MUG on UGT1A3

UGT2B15 = biological target: T6, UGT2B15 (Homo sapiens, UniProt P54855); assay: 4MU glucuronidation, HPLC of 4MUG
T6 construct: Supersome recombinant human enzyme (Corning), microsomal preparation
T6 sequence (P54855 24-530): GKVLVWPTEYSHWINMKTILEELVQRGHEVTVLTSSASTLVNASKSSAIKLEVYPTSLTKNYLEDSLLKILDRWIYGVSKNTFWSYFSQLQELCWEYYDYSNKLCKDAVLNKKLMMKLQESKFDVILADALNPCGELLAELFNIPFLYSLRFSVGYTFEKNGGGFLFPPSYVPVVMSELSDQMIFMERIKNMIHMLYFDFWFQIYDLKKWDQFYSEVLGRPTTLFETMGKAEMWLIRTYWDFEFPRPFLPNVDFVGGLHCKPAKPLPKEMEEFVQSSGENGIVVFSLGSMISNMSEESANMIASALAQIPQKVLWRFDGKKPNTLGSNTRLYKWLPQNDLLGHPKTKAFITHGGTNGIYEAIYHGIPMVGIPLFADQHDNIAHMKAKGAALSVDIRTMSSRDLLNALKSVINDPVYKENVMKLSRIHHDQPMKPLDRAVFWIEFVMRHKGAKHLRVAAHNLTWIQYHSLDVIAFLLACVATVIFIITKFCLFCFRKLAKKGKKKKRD
From the text: 4MU glucuronidation, HPLC of 4MUG on UGT2B15

## CC[C@@H]1CN2CCc3c([nH]c4cccc(OC)c34)[C@@H]2C[C@@H]1/C(=C\OC)C(=O)OC [mitragynine]
UGT1A1
  IC50: > 200 µM
UGT1A9 [1]
  IC50: 131 ± 11 µM
UGT2B7
  IC50: > 200 µM
UGT1A6
  IC50: 121 ± 44 µM
UGT1A9 [2]
  Ki: 114 ± 13 µM
UGT1A3 [3]
  Ki: 45 ± 1.3 µM
UGT1A3 [4]
  IC50: 72 ± 0.16 µM
UGT2B15
  IC50: 152 ± 24 µM

From PMC11872117, “Inhibitory effects of Kratom constituents, mitragynine and 7-hydroxymitragynine, on 4-methylumbelliferone glucuronidation by human UDP-glucuronosyltransferases” (Toxicology Reports, 2025)
